As usually defined, the EC50 is the concentration at which the effect is half-maximal.

The target in this test is T1, Peroxisome proliferator-activated receptor gamma (Homo sapiens, UniProt P37231).
T1 sequence (P37231 whole entry): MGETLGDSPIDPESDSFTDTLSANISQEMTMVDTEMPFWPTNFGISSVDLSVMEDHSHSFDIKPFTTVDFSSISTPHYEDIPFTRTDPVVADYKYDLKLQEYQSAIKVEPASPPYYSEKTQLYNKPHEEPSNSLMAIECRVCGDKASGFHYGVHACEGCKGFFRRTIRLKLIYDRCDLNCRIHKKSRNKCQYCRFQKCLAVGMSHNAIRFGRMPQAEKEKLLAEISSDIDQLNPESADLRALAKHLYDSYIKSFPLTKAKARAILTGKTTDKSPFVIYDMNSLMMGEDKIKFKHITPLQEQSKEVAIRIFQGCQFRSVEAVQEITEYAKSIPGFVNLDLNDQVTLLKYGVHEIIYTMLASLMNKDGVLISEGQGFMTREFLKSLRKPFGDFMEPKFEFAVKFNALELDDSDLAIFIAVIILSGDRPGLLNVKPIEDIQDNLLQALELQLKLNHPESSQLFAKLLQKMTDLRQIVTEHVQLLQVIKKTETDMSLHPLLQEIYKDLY
Format: functional, cell-based, HepG2.
Description: Agonist activity at PPARgamma receptor expressed in human HepG2 cells by PPRE-luciferase reporter gene assay
`Cc1ccc(S(=O)(=O)Oc2ccc(N(CC(=O)O)S(=O)(=O)c3ccc(C)cc3)cc2)cc1` had an EC50 of 0.0153 µM.
In the case of `COc1ccc(-c2nc(SCC(=O)O)n(-c3ccccn3)c2-c2ccc(OC)cc2)cc1` it was 0.224 µM.
In the case of `COC1=C(OC)Cc2c(cc[n+]3c(CCC(=O)O)c4cc(OC)c(OC)cc4cc23)C1` it was 220 µM.

The values are drawn from ChEMBL document CHEMBL1782050, “Discovery of new nanomolar peroxisome proliferator-activated receptor γ activators via elaborate ligand-based modeling” (Eur J Med Chem, 2011).
